{
  "source": "patent US20060263781A1",
  "about": "“Regulation of cell surface proteins” (priority 2003, published 2006)",
  "key": {"[1]": {"system": "tropomyosin isoforms", "experiment": "Immunofluorescence localisation of tropomyosin isoforms in T84 cells after treatment", "assay_type": "cell-based, human", "conditions": "for effect on polarised distribution of αf9d staining: T84 cell monolayers, 2 μM oligonucleotide for 24 hours", "experimental": "(§1) Cells were washed in 2% foetal bovine serum (FBS) in phosphate buffered saline (PBS) then fixed with 4% paraformaldehyde. They were permeabilised with 100% methanol, chilled to −80° C., for 20 minutes. Cells were incubated at room temperature with primary and secondary antibodies for 1 hour with washes performed with 2% FBS in PBS 3 times for 10 minutes after each incubation. Coverslips were mounted onto the slides with the anti-fade reagent DABCO.\n(§2) Fluorescence was examined with a confocal laser scanning microscope (Leica Microsystems, Wetzler, Germany) using a 63× oil emersion objective. The distribution of fluorophores was measured by scanning at 488 nm for FITC and 568 nm for rhodamine using 8 line averages to eliminate noise. Images were taken in the vertical (xz) and horizontal (xy) plane. Images in the horizontal plane were constructed by overlaying sections taken at 1 μm steps from the apical to the basal region of the cells.\n(§3) Epithelial cell monolayers were trypsinalised using trypsin/EDTA and centrifuged to form a cell pellet. The cells were then resuspended in medium containing either 1 μM jasplakinolide, 20 μM cytochalasin D or 33 μM nocodazole and seeded into poly-d-lysine and collagen coated glass chamber slides. The developing monolayers were then fixed and stained at 10 minutes after seeding. The effect of nocodazole on microtubules was confirmed by staining with antibodies to β tubulin and comparing with untreated cells. Mature T84 cell monolayers were treated with medium containing 20μM cytochalasin D for 3 hours then fixed and stained. Immunofluorescence analysis was then performed as described above.\nThe sequence of the antisense and nonsense phosphorothioated oligonucleotides to Tm5a and Tm5b were 5′-[…] (SEQ ID NO:14) and 5′-[…] (SEQ ID NO:15) respectively. These were designed from the exon 1b sequence of the human αTMfast gene (Novy et al., 1993, Cell Motility & the Cytoskeleton 25, 267-281). T84 cell monolayers were grown to confluence on coverslips, in glass chamber slides or 24 well plates. The oligonucleotides were applied at a concentration of 2 μM with Lipofectin Reagent at 10 μg/ml according to the manufacturers instructions. The T84 cell monolayers were then incubated with the oligonucleotide for 24 hours at 37° C. in 5% CO2 after which time they were used for experiments that required oligonucleotide pretreatment."}, "[2]": {"system": "Tm5a and Tm5b", "experiment": "Western blot (immunoblot) of tropomyosin isoforms in T84 cells", "assay_type": "cell-based, human", "conditions": "24 hours exposure, 2 μM, Western blot band density", "experimental": "The sequence of the antisense and nonsense phosphorothioated oligonucleotides to Tm5a and Tm5b were 5′-CAC CGC CUC CAG CGA GCT (SEQ ID NO:14) and 5′-GCT CCA GCC ACG CCG ACT (SEQ ID NO:15) respectively. These were designed from the exon 1b sequence of the human αTMfast gene (Novy et al., 1993, Cell Motility & the Cytoskeleton 25, 267-281). T84 cell monolayers were grown to confluence on coverslips, in glass chamber slides or 24 well plates. The oligonucleotides were applied at a concentration of 2 μM with Lipofectin Reagent at 10 μg/ml according to the manufacturers instructions. The T84 cell monolayers were then incubated with the oligonucleotide for 24 hours at 37° C. in 5% CO2 after which time they were used for experiments that required oligonucleotide pretreatment.\nProteins were extracted from T84 cells using the method of Wessel and Flugge (Wessel and Flugge, 1984). Western blot was performed as described (Percival et al., 2000, Cell Motility & the Cytoskeleton 47, 189-208). […] Bound antibody was detected using HRP-conjugated goat anti-rabbit or goat anti-mouse IgG. The bands were detected using Western Lightening™ chemiluminescence reagent and exposure to x-ray film.\nProtein expression was measured as the density of protein bands on Western blot autoradiographs using the computer program Molecular Analyst (Version 1.5, Bio Rad Laboratories, Calif., U.S.A.). […]"}, "[3]": {"system": "Tm5a and Tm5b", "experiment": "Apical αf9d antibody staining pixel intensity by confocal microscopy in T84 cell monolayers", "assay_type": "cell-based, human", "conditions": "2 μM oligonucleotide for 24 hours, mean±1 SD", "experimental": "as §1, §2\nThe pixel intensity of Tm antibody staining was measured on images obtained by confocal microscopy. Measurements were made across the apical region and across the central region of monolayers and averaged to obtain the mean pixel intensity for individual monolayers. […]"}, "[4]": {"system": "CFTR", "experiment": "Enzyme linked surface CFTR assay in T84 cell monolayers", "assay_type": "cell-based, human", "conditions": "for CFTR surface expression, absorbance at 655 nm normalised to the nonsense treated group: 2 μM oligonucleotide for 24 hours, mean±1 SD; for CFTR surface expression, absorbance at 655 nm normalised to the control group: forskolin stimulated T84 cell monolayers, 33 μM nocodazole for 3 hours, mean±SD", "experimental": "T84 cell monolayers cultured on collagen coated glass coverslips were incubated in either chloride buffer with 10 μM forskolin or chloride buffer only for 30 minutes at 37° C. in 5% CO2 then fixed with 4% paraformaldehyde for 20 minutes at 4° C. The T84 cell monolayers were incubated for 1 hour firstly with CFTR (MA1-935) antibody (Walker et al., 1995) diluted 1:500 followed by HRP anti-mouse IgG diluted 1:1000. T84 cell monolayers were blocked prior to each incubation for 10 minutes in PBS containing 10% FBS and washed following each incubation 4 times in PBS. The coverslips were then placed into a clean 24 well plate and incubated for 30 minutes with 500 μl of 3′3′5′5′ Tetra methyl benzidine. The supernatant from each well was transferred to a cuvette and absorbance determined at 655 nm in a Beckman DU650 spectrophotometer. Absorbance was also determined at 655 nm for primary antibody negative controls and that amount was subtracted from the absorbance in primary antibody positive monolayers to determine their assay result.\nThe CFTR surface expression is reported as the absorbance measured at 655 nm, normalised to the mean absorbance for the control group within individual experiments. To determine the effects of treatment, normalised absorbance at 655 nm was compared between groups. Two group comparisons were made using the Student t test.\n(§4) Cultured T84 colon cancer cell monolayers grown in collagen coated 24 well plates or on plastic coverslips were used as a model of the gastrointestinal epithelium. Incubation of monolayers inoculated with EPEC ([…]) for 6-9 hours was used to model EPEC infection and was compared with HB101, a non-pathogenic control. Antisense oligonucleotides were used to reduce tropomyosin 5a and 5b expression. An immuno-colourimetric assay was used to assess CFTR surface expression and intra-cellular MQAE fluorescence was used to assess chloride efflux."}, "[5]": {"system": "T84 cell monolayers", "experiment": "MQAE chloride efflux assay", "assay_type": "cell-based, human", "conditions": "for cumulative chloride efflux at 15 minutes, percentage increase in fluorescence normalised to the nonsense group: 2 μM oligonucleotide 24 hours, 10 μM forskolin, mean±1 SD; for cumulative chloride efflux at 15 minutes, percentage increase in fluorescence normalised to the control group: nocodazole 33 μM for 3 hours, mean±SD", "experimental": "T84 cell monolayers, cultured on 24 or 96 well plates were incubated in medium containing 10 mM MQAE for 16 hours. The monolayers were then washed 3 times in chloride buffer (2.4 mM Na2HPO4, 0.6 mM NaH2PO4, 1 mM K2SO4, 1 mM MgSO4, 3.4 mM KCl, 124.6 mM NaCl, 1 mM CaCl2, 10 mM glucose and 10 mM HEPES ). T84 cell monolayers were stimulated with forskolin by incubating with chloride buffer containing 10 μM forskolin for 10 minutes, after which the chloride buffer was removed and replaced with chloride free buffer (2.4 mM Na2HPO4, 0.6 mM NaH2PO4, 1 mM K2SO4, 1 mM MgSO4, 3.4 mM KNO3, 1 mM Ca(NO3)2, 124.6 mM NaNO3, 10 mM glucose and 10 mM HEPES) containing 10 μM forskolin. Repetitive fluorescence measurements were initiated immediately using a fluorescence plate reader (excitation, λ-360 nm; emission, λ-460 nm). Measurements were performed every 30 to 60 seconds for 15 minutes.\nChloride efflux was measured as the percentage increase in fluorescence between baseline and the specified time point. The percentage increase in fluorescence was normalised within experiments to the mean percentage increase in fluorescence in the control group in that experiment. To determine the effects of treatments, the normalised percentage increase in fluorescence was compared between groups. Two group comparisons were made using the Student t test.\nas §4"}, "[6]": {"system": "microtubules", "experiment": "β tubulin staining to confirm effect on microtubules", "assay_type": "cell-based, human", "conditions": "T84 cells, 33 μM nocodazole", "experimental": "as §3, with “The effect of nocodazole on microtubules was confirmed by staining with antibodies to β tubulin and comparing with untreated cells.” left out"}, "[7]": {"system": "CFTR", "conditions": "cytochalasin D induced disruption of actin filaments; Prat et al., 1995; cited from earlier work"}},
  "data": [
    {"compound": "5′-CAC CGC CUC CAG CGA GCT (antisense CACCGCCUCCAGCGAGCT; all phosphorothioate, sugars by position and methylation of C not given here) [Antisense phosphorothioated oligonucleotide to Tm5a and Tm5b, targeted to exon 1b of the TPM1 gene]", "values": [
      {"measurement": "effect on polarised distribution of αf9d staining", "setting": "[1]", "value": "eliminated the polarised distribution of αf9d staining"},
      {"measurement": "mean reduction in Tm5a and Tm5b levels relative to nonsense treatment", "setting": "[2]", "value": "54±13", "unit": "%"},
      {"measurement": "apical αf9d antibody staining pixel intensity", "setting": "[3]", "value": "53.62±31.62"},
      {"measurement": "increase in CFTR surface expression, antisense compared with nonsense controls", "setting": "[4]; T84 cell monolayers, 2 μM for 24 hours", "value": 50, "unit": "%"},
      {"measurement": "CFTR surface expression, absorbance at 655 nm normalised to the nonsense treated group", "setting": "[4]; T84 cell monolayers", "value": "1.49±0.78"},
      {"measurement": "cumulative chloride efflux at 15 minutes, percentage increase in fluorescence normalised to the nonsense group", "setting": "[5]", "value": "1.47±0.41"}
    ]},
    {"compound": "COC(=O)Nc1nc2ccc(C(=O)c3cccs3)cc2[nH]1", "note": "[Nocodazole, nocodazole]", "values": [
      {"measurement": "microtubular structure by β tubulin staining", "setting": "[6]", "value": "disrupted normal microtubular structure"},
      {"measurement": "distribution of 311 antibody staining 10 minutes post-seeding", "setting": "[1]; T84 cells pretreated in suspension before seeding (jasplakinolide 1 μM, nocodazole 33 μM)", "value": "enrichment at the apical surface"},
      {"measurement": "CFTR surface expression, absorbance at 655 nm normalised to the control group", "setting": "[4]", "value": "0.92±0.25"},
      {"measurement": "CFTR surface expression, absorbance at 655 nm normalised to the control group", "setting": "[4]; listed as nocodazole", "value": "failed to elicit any significant change"},
      {"measurement": "cumulative chloride efflux at 15 minutes, percentage increase in fluorescence normalised to the control group", "setting": "[5]", "value": "1.01±0.43"},
      {"measurement": "cumulative chloride efflux at 15 minutes, percentage increase in fluorescence normalised to the control group", "setting": "[5]; listed as nocodazole", "value": "failed to elicit any significant change"}
    ]},
    {"compound": "C=C1[C@@H](C)[C@H]2[C@H](Cc3ccccc3)NC(=O)[C@]23[C@H](OC(C)=O)/C=C/[C@@](C)(O)C(=O)[C@@H](C)C/C=C/[C@H]3[C@@H]1O", "note": "[cytochalasin D]", "values": [
      {"measurement": "effect on polarised distribution of αf9d staining in established monolayers", "setting": "[1]; mature T84 cell monolayers, 20 μM cytochalasin D for 3 hours", "value": "eliminated the polarised distribution of αf9d staining"},
      {"measurement": "effect on chloride currents through CFTR", "setting": "[7]", "value": "increase chloride currents through CFTR"}
    ]},
    {"compound": "5′-GCT CCA GCC ACG CCG ACT (GCTCCAGCCACGCCGACT; all phosphorothioate, sugars by position and methylation of C not given here) [Nonsense, Scrambled nonsense control oligonucleotide]", "values": [
      {"measurement": "effect on polarised distribution of αf9d staining", "setting": "[1]", "value": "essentially no effect on the distribution of staining"},
      {"measurement": "apical αf9d antibody staining pixel intensity", "setting": "[3]", "value": "150.86±48.28"},
      {"measurement": "CFTR surface expression, absorbance at 655 nm normalised to the nonsense treated group", "setting": "[4]; T84 cell monolayers", "value": "1±0.42"},
      {"measurement": "cumulative chloride efflux at 15 minutes, percentage increase in fluorescence normalised to the nonsense group", "setting": "[5]", "value": "1±0.36"}
    ]}
  ]
}
